How the values were obtained:
Type in all cases: in vivo, rat
bioactive TGFβ-1 [1] = experiment: Immunohistochemistry of renal grafts for bioactive TGFβ-1
Protocol: FIGS. 6 (B) and (C) show immunohistochemistry for bioactive TGFβ-1 in two 1,25-(OH)2D3 treated grafts (1000 ng/rat/day). […] Magnification 200×.
Immunhistochemistry: Formalin fixed, paraffin embedded rat kidneys were sectioned to 4 microns. Sections were rewarmed on day of staining at 60° for 10 minutes, then deparaffinized in xylene for 30 minutes followed by rehydration. Sections were washed twice in distilled water and antigen retrieval performed. Briefly, section were soaked in 100 mM citrate buffer, pH=6.0 for 10 minutes at 90° C. and then heated to 115° C. or 20 minutes Sections were allowed to cool and then washed in PBS and blocked for 10 minutes with BIOCARE SUPER SNIPER9 (BS996L) followed by diluted primary TGFβ-1 antibody (1:150 (Promega Corp., Madison, Wis.; G1221) at 4° C. overnight. Slides were washed (3×5 minutes, PBS) and secondary antibody applied (1 hour at RT, MACHII BIOCARE goat anti-rabbit with polymer spacer; RHRP52OH, Walnut Creek, Calif.).
Slides were developed with Pierce=s Stable Peroxide buffer (cat #1855910) and Pierce=s Stable Metal enhanced DAB solution (cat #1856090).

Smad 7 mRNA = experiment: Semi-quantitative RT-PCR of renal grafts, Smad 7 mRNA; conditions: vs controls
Protocol: (§1) Semi-quantitative Reverse transcription polymerace chain reaction (RT-PCR): Following graft harvest a […] containing both cortex and medulla was snap frozen in liquid nitrogen. Semi-quantitative RT-PCR was performed as described. Little et al. Transplant Int. 12:393-401, 1999. Briefly, samples were homogenized then total RNA extracted with RNAzol B (Tel Test, Inc., Friendswood, Tex.) and reversed transcribed to cDNA according to manufacturer=s instructions (Superscript, Gibco BRL). PCR was performed over the linear range of amplification for both the gene of interest, e.g. TGFβ-1, and the ribosomal protein S26 as a control housekeeping gene. PCR conditions were chosen such that both products were amplified with similar efficiency. The following cycle parameters were employed: denaturing, 94° C. for 60 seconds; annealing, 61° C. for 60 seconds; and extension, 72° C. for 60 seconds. The amount of product was quantified using a phosphoimager (Storm 80) following gel electrophoresis and Vista green detection.

bioactive TGFβ-1 [2] = experiment: Antigen-capture ELISA of renal graft lysates, bioactive TGFβ-1; conditions: treated recipients vs untreated allogeneic control grafts
Protocol: Enzyme Linked Immunoabsorbant Assay (ELISA): TGFβ-1 and MMP 2 levels were quantified by antigen-capture ELISA. […] After blocking with 1× block buffer at 37° C. for 35 minutes 25 ul of cell lysate (diluted 1:10 in the lysis buffer) was added to the wells. A standard curve was generated by performing two fold serial dilutions of the standard active TGFβ-1 antigen (diluted 15.6 pg/ml to 1000 pg/ml, Promega, Inc.) or MMP2 (0.5 ng/ml to 100 ng/ml, R and D Systems). The plate was incubated for 2 hours at RT with shaking and then washed extensively with wash buffer (0.05% Tween 20 in PBS) followed by PBS. The TGFβ-1 ELISA was then developed according to the manufacturer's instruction. For the MMP2 ELISA, biotinylated detection antibody, clone 101721 (25 μL/well at 1.4 ug/ml R and D Systems) was added and incubated at RT (1hour, with shaking). The antibody was biotinylated using a Mini-Biotin-XX Protein Labeling Kit (F-6347) according to manufacturer's instruction (Molecular Probes, Eugene Oreg.). Following further washing, avidin-peroxidase conjugate was added (25 ul/well at 1:5000) for 30 minutes at RT. A color reaction was developed by the addition of 25 ul of the TMB (3, 3′, 5, 5′-tetramethylbenzidine)/[…] substrate solution, (KPL, Gaithersberg, Md.). […] Absorbance was measured at 450 nm on a Vmax Kinetic microplate reader (Molecular Devices, Sunnyvale Calif.). […]

Smad 6 mRNA = experiment: Semi-quantitative RT-PCR of renal grafts, Smad 6 mRNA
Description: FIG. 3 is a bar graph disclosing that 1,25-(OH)2D3 treated increases Smad 6 mRNA expression. Semi-quantitative RT-PCR was used to determine Smad mRNA express. PCR products were quantified on a phosphoimager and the level of Smad expression compared to that of a ribosomal housekeeping gene, S26. Results are expressed as the ratio to S26.
as §1

MMP 9 mRNA = experiment: Semi-quantitative RT-PCR of renal grafts, MMP 9 mRNA; conditions: all groups vs syngeneic untreated controls, regardless of treatment
Protocol: FIG. 5 is a set of graphs showing that 1,25-(OH)2D3 Treatment Alters MMP and TIMP Expression . […] S26 was used as the housekeeping gene. […]
as §1

Smad 3 mRNA = experiment: Semi-quantitative RT-PCR of renal grafts, Smad 3 mRNA; conditions: vs controls
Protocol: as §1

SMILES: C=C1/C(=C\C=C2/CCC[C@]3(C)[C@@H]([C@H](C)CCCC(C)(C)O)CC[C@@H]23)C[C@@H](O)C[C@@H]1O [calcitriol, 1,25-dihydroxyvitamin D3]
- Glomerular staining for bioactive TGFβ-1 (bioactive TGFβ-1 [1]; 1000 ng/rat/day (FIG. 6 legend)): significantly decreased
- Bioactive TGFβ-1 staining in tubular areas (bioactive TGFβ-1 [1]; allogeneic grafts (FIG. 6)): extensive staining
- Bioactive TGFβ-1 expression in glomeruli (bioactive TGFβ-1 [1]; treated grafts in contrast to untreated control grafts (FIG. 6)): little bioactive TFGβ-1 expression
- Smad 7 mRNA levels (Smad 7 mRNA): no significant change
- Bioactive TGFβ-1 protein levels (bioactive TGFβ-1 [2]): no significant difference
- Smad 6 mRNA expression (Smad 6 mRNA; allogeneic grafts, vs untreated allogeneic grafts (1,25-(OH)2D3 p=0.02)): significantly increased
- Smad 6 mRNA expression (Smad 6 mRNA; syngeneic grafts, vs untreated allogeneic grafts, p=0.001): significantly increased
- MMP 9 mRNA (MMP 9 mRNA): increased
- Smad 3 mRNA levels (Smad 3 mRNA): no significant change
